# Entries after “also recorded” stand apart in the source; their conditions may differ. Like-named read-outs stand apart in the source and are kept apart here.
# Experiments:
# LasR [1] = target: T1, LasR (Pseudomonas aeruginosa, UniProt P25084); assay: lasI-gfp reporter agonist assay, PAO-JP2 (plasI-LVAgfp); format: cell-based, P. aeruginosa; settings: for agonist activity (induction of lasI-gfp reporter): PAO-JP2 (plasI-LVAgfp), compounds made in solution phase, increasing concentrations (1, 100, 400 μM)
# T1 construct: endogenous in cells; host or cells: P. aeruginosa PAO-JP2 (lasI, rhlI) harboring plasI-LVAgfp
# T1 sequence (P25084 whole entry): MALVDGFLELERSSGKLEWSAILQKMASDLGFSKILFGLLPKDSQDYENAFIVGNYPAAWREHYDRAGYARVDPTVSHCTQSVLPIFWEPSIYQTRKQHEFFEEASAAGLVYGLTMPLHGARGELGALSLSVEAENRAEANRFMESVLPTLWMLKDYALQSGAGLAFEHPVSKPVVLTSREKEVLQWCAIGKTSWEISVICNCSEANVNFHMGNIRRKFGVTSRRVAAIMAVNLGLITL
# Description: Since this strain lacks the ability to produce natural AIs due to disruption of both AI synthase genes, activation of LasR relies on the addition of exogenous AI1. Expression of gfp (encoding green fluorescent protein) is under control of the LasR-AI1 inducible lasI promoter, allowing rapid screening for LasR agonists by measuring the level of GFP expression in their presence.
# (§1) P. aeruginosa strain PAO-JP2 (lasI, rhlI) (Rahme et al., Science 268:1899-1902 (1995), which is hereby incorporated by reference in its entirety) harboring plasI-LVAgfp (Pearson et al., Proc. Natl Acad. Sci. USA 91:197-201 (1994), which is hereby incorporated by reference in its entirety) was grown at 37° C. in LB with 300 μg/ml carbenicillin. For agonist assays, an overnight culture was diluted to an OD600 of 0.1 and transferred to wells of a 96-well plate on which test compounds had previously been added and dried. The final concentration of each analog tested was roughly 400 μM, although this is an overestimate due to purity issues. Cells were then incubated for 6 hours at 37° C. with vigorous shaking. GFP expression was detected with a Molecular Imager (BioRad) (488 nm excitation and 695 nm bandpass filter) and quantified with ImageQuant software. The OD600 of cultures was determined to normalize GFP expression to cell density.
# (§2) Reporter strains were grown overnight in LB plus 300 μg/ml carbenicillin at 37° C. and diluted to an OD600 of 0.1. Following an incubation of 1 hour, 200 μl of cell culture was added to individual wells of a 96 well plate containing appropriate amount of test compound(s). Plates were incubated for 6 hours and then scanned for fluorescence emission with a Molecular Imager (488 nm excitation and 695 nm bandpass filter). Fluorescence was quantified with ImageQuant software.
# RhlR [2] = assay: rhlI-gfp reporter antagonist assay, PAO-JP2 (prhlI-LVAgfp); format: cell-based, P. aeruginosa; settings: competing against 1 μM AI1 and 10 μM AI2
# Description: Each compound in the library was tested for antagonist activity using the same reporter strain, PAO-JP2 (plasI-LVAgfp) (de Kievit et al., Appl. Environ. Microbiol. 67:865-1873 (2001), which is hereby incorporated by reference in its entirety) to find compounds that could compete against AI1 and reduce GFP expression. The methods were the same as described in Example 2 (GFP Reporter Assay), except that 1 μM AI1 was added to each well in combination with the library compound. The fluorescence/OD600 of each compound competing against AI1 was reported relative to the fluorescence/OD600 of the positive control of AI1 alone, which was set to 1. When strain PAO-JP2 (prhlI-LVAgfp) was used, the positive control was 1 μM AI1 and 10 μM AI2.
# 3- oxo-C12-D10 was synthesized in solution phase, where the natural side chain was coupled with D10 and purified by chromatography. To determine if the same structural motif can be applied to inhibition of the RhlR-AI2 interaction, C4-D10 was also synthesized. Assays were performed with both the lasI-gfp reporter PAO-JP2 (plasI-LVAgfp) and an RhlR-AI2 controlled rhlI-gfp reporter, PAO-JP2 (prhlI-LVAgfp) (FIGS. 10A-C) (de Kievit et al., Appl. Environ. Microbiol. 67:865-1873 (2001), which is hereby incorporated by reference in its entirety).
# as §2
# Next the ability of 2 and 3 to inhibit the rhlI-gfp reporter strain PAO-JP2 (prhlI-LVAgfp) was tested, since this expression is also AI1-dependent.
# lac promoter = assay: GFP expression from lac promoter, PAO-JP2 (pTdK-GFP) (specificity control); format: cell-based, P. aeruginosa; settings: lasI promoter replaced with a lac promoter
# LasR [3] = target: T1, LasR; assay: lasB-lacZ reporter assay, E. coli MG4 (pKDT37); format: cell-based, P. aeruginosa
# Description: E. coli strain MG4 (pKDT37) was grown overnight in Supplemented A media with 100 μg/mL ampicillin at 30° C. and diluted 1:100 in the same media. 1 mL of this culture was added to a test tube containing AI1 or 3-oxo-C12-D12 that had been previously aliquoted and dried. Following a 6 hour incubation at 30° C., β-galactosidase activity was determined using standard methods (Platt et al., Assays of the lac operon Enzymes In: Experiments in Molecular Genetics, Cold Spring Harbor Laboratory Press, Cold Spring Harbor, N.Y., pp. 352-355 (1972), which is hereby incorporated by reference in its entirety).
# One of the new agonist structures identified from the library, D12, is 2-aminocyclohexanol (FIG. 5B). […] 3-oxo-C12-D12, containing the natural side chain, was synthesized in solution phase, and tested with both the lasI-gfp reporter as well as a lasB-lacZ reporter in Escherichia coli. E. coli strain MG4 harboring plasmid pKDT37 expresses lasR and contains a lacZ reporter gene controlled by a LasR-AI1 inducible lasB promoter (Passador et al., J. Bacteriol. 178:5995-6000 (1996), which is hereby incorporated by reference in its entirety). […] It also provides strong evidence that the agonist activity in P. aeruginosa is LasR dependent.
# RhlR [4] = target: T2, RhlR (Pseudomonas aeruginosa, UniProt P54292); format: cell-based, P. aeruginosa; settings: for AI2 agonist activity (induction of rhlI-gfp reporter): in the presence of 1 μM AI1, 10, 100, 400 μM analog
# T2 construct: an RhlR-AI2 controlled rhlI-gfp reporter, PAO-JP2 (prhlI-LVAgfp); endogenous in cells; host or cells: P. aeruginosa PAO-JP2 (prhlI-LVAgfp)
# T2 sequence (P54292 whole entry): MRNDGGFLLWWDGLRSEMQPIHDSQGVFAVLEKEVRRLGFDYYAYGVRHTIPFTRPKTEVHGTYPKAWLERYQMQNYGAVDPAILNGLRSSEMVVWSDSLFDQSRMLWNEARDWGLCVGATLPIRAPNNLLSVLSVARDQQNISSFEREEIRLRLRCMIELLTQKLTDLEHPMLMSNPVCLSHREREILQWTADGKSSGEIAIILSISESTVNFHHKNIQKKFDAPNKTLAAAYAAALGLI
# Description: Thus, it was hypothesized that a 5- or 6-membered ring with a keto or hydroxyl group (or other hydrogen bond acceptor) adjacent to the amine is sufficient for both binding and activation of LasR. To test this hypothesis, the series of molecules shown in FIG. 13 (compounds 14) was synthesized.
# as §2
# The C4 compounds (A12 and 5-8) were analyzed for agonist activity using PAO-JP2 (prhlI-LVAgfp) (FIGS. 14C and D). Induction of GFP expression in this reporter requires addition of both AI1 and AI2. The AI2 control and agonist assays, therefore, were performed in the presence of 1 μM AI1 and increasing concentrations of AI2 or analog (FIGS. 14C and D).
# LasR [5] = target: T1, LasR; assay: lasI-gfp reporter antagonist (competition against AI1) assay, PAO-JP2 (plasI-LVAgfp); format: cell-based, P. aeruginosa; settings: for reduction of GFP expression (lasI-gfp): 1 μM AI1
# Description: as §1
# The methods were the same as described in Example 2 (GFP Reporter Assay), except that 1 μM AI1 was added to each well in combination with the library compound. The fluorescence/OD600 of each compound competing against AI1 was reported relative to the fluorescence/OD600 of the positive control of AI1 alone, which was set to 1. When strain PAO-JP2 (prhlI-LVAgfp) was used, the positive control was 1 μM AI1 and 10 μM AI2. Eight compounds that inhibited reporter gene expression by greater than 50% were identified (see, e.g., FIG. 6).
# as §2
# Elastase B [6] = assay: elastase (Elastin Congo Red) assay, strain PAO-JP2; format: cell-based, P. aeruginosa PAO-JP2; settings: PAO-JP2, 10-100 μM compound, competing against 5 μM AI1 and 10 μM AI2
# Description: (§3) Pyocyanin, elastase, and biofilm were assayed as previously described (Smith et al., Chem. Biol. 10:81-89 (2003), which is hereby incorporated by reference in its entirety). Elastase activity produced by P. aeruginosa in the presence of AIs and competing 3-oxo-C12-D10 was determined by measuring breakdown of the substrate Elastin Congo Red.
# (§4) For the elastase B assay, cells (PAO-JP2) were grown overnight in PTSB media (5% Peptone, 0.1% Tryptic Soy Broth) at 37° C., washed and diluted to an OD600 of 0.05, grown to mid-log phase, washed again, and re-suspended to an OD600 of 0.05. The culture was then added to test tubes containing test compound(s) and grown for 6 hours. Elastase B activity was quantified by incubation of 100 μl of filtered culture supernatant with 5 mg Elastin Congo Red substrate and 1 ml of 10 mM Tris pH 7.2, 1 mM CaCl2 for 6 hours at 37° C. with agitation. Elastase B activity is represented by the OD495 of the enzyme assay following reaction quenching with EDTA and centrifugation to remove unreacted substrate, divided by the OD600 of the cell culture. The same assay was run with strain PAO-1, however no exogenous autoinducers were added.
# Elastase B [7] = assay: elastase (Elastin Congo Red) assay, wild type strain PAO1; format: cell-based, P. aeruginosa PAO1; settings: wild type PAO1, no exogenous autoinducers
# Description: as §3, §4
# pyocyanin [8] = assay: pyocyanin assay, strain PAO-JP2; format: cell-based, P. aeruginosa PAO-JP2; settings: PAO-JP2, 25 μM each of AI1 and AI2, 18 hours
# Description: (§5) For the pyocyanin assay, cells were grown overnight in LB then washed in fresh media and diluted to an OD600 of 0.05. This culture was grown for 3-4 hours to mid-log phase (OD600 of 0.3-0.5), then diluted to an OD600 of 0.05, and aliquoted to test tubes containing an appropriate amount of test compound(s). Following 18 hours of growth, pyocyanin was extracted from filtered culture supernatants and quantified using standard methods (Essar et al., J. Bacteriol. 172:884-900 (1990), which is hereby incorporated by reference in its entirety).
# pyocyanin [9] = assay: pyocyanin assay, wild type strain PAO1; format: cell-based, P. aeruginosa PAO1; settings: wild type PAO1, no AIs added
# Description: as §5
# [10] = test system: PAO-JP2 (pTdK-GFP) biofilm; assay: static biofilm assay, PAO-JP2 (pTdK-GFP); format: cell-based, P. aeruginosa; settings: PAO-JP2 (pTdK-GFP) with exogenous AIs, 24-hour static assay
# Description: (§6) Compound 3 was tested for its effect on biofilm development in a 24-hour assay that looks at the early stages of biofilm formation. […] Cultures were grown at 37° C. with shaking for 30 minutes, and then allowed to sit at 37° C. for an additional 23.5 hours. Coverslips were then rinsed and placed on slides for visualization using an MRC1024 Laser Scanning Microscope (BioRad) with a Nikon Fluor-60X oil emersion objective lens (NA=1.4), 488 nm Argon Laser and OG515 filter.
# PAO1 (pTdK-GFP) biofilm = assay: static biofilm assay, PAO1 (pTdK-GFP); format: cell-based, P. aeruginosa
# Description: as §6
# The same assay was run with strain PAO-1 (pTdK-GFP), and no exogenous autoinducers were added. […] The above results provide additional evidence that compound 3 interferes with QS signaling and reduces the production of important virulence factors.
structure (smiles),measurement,setting,value
"CCCCCCCCCC(=O)CC(=O)N[C@@H]1CCC[C@H]1O (relative stereo) [Compound 2, N-(trans-2-hydroxycyclopentyl)-3-oxododecanamide]",agonist activity (induction of lasI-gfp reporter),LasR [1],nearly unable to induce the reporter
same,antagonist activity on rhlI-gfp reporter,RhlR [2],no antagonist activity
same,inhibition of GFP expression from lac promoter,lac promoter,inability to inhibit GFP expression
"CCCCCCCCCC(=O)CC(=O)N[C@@H]1CCCC[C@H]1O (relative stereo) [Compound 4, N-(trans-2-hydroxycyclohexyl)-3-oxododecanamide]",agonist activity (induction of lasI-gfp reporter),LasR [1],strong agonist activity; also recorded: strongest agonist
same,agonist activity (induction of lasI-gfp reporter),LasR [1]; listed as 3-oxo-C12-D12,activated
same,"GFP induction, fold less than AI1",LasR [1]; at 1 μM,2 fold
same,GFP induction compared with AI1,"LasR [1]; at higher concentrations (100, 400 μM)",comparable to AI1
same,lasB-lacZ reporter activation (beta-galactosidase activity),"LasR [3]; E. coli MG4 (pKDT37), 6 hour incubation",activated
same,LasR inducing activity compared with natural AI1,LasR [3]; lasI-gfp and lasB-lacZ reporters (FIG. 9),comparable to the natural AI1
"CCCC(=O)N[C@@H]1CCC[C@H]1O (relative stereo) [Compound 6, N-(trans-2-hydroxy)cyclopentylbutanamide]",antagonist activity on rhlI-gfp reporter,RhlR [2],no inhibition
same,AI2 agonist activity (induction of rhlI-gfp reporter),RhlR [4],no agonist activity
same,AI2 agonist activity (induction of rhlI-gfp reporter),RhlR [4]; listed as C4-(2-aminocylcopentanol),could not activate RhlR
"CCCC(=O)N[C@@H]1CCCC[C@H]1O (relative stereo) [Compound 8, N-(trans-2-hydroxy)cyclohexylbutanamide]",GFP expression (rhlI-gfp),"RhlR [4]; 400 μM analog, 1 μM AI1",moderate GFP expression
same,AI2 agonist activity (induction of rhlI-gfp reporter),RhlR [4],very little AI2 agonist activity
CCCCCCCCCC(=O)CC(=O)Nc1ccccc1O [3-oxo-C12-D10],"las circuit inhibition, comparison of potency",LasR [5],more potent than 3
same,reduction of GFP expression (lasI-gfp),LasR [5]; 10 μM compound,approximately 60%
same,reduction of GFP expression (lasI-gfp),LasR [5]; 100 μM compound,~90%
same,inhibition of GFP expression (rhlI-gfp),RhlR [2]; 50 μM compound,more than 80%
same,reduction of elastase activity,Elastase B [6],approximately 50%
same,effect on elastase activity,Elastase B [7],reduced elastase activity
same,effect on pyocyanin production,pyocyanin [8],not able to interfere with pyocyanin production
same,effect on pyocyanin production,pyocyanin [9],not able to interfere with pyocyanin production
same,effect on biofilm formation,[10],slightly enhanced rather than inhibited
same,effect on biofilm morphology,PAO1 (pTdK-GFP) biofilm; wild type PAO1,fluffy
same,effect on biofilm formation,"PAO1 (pTdK-GFP) biofilm; wild type PAO1, no exogenous autoinducers",did not interfere with biofilm formation
"CCCCCCCCCC(=O)CC(=O)NC1CCCC1=O (stereo not shown) [Compound 1, N-(2-oxocyclopentyl)-3-oxododecanamide]",agonist activity (induction of lasI-gfp reporter),LasR [1],able to induce the reporter only at a very high concentration; also recorded: weak agonist
"CCCC(=O)NC1CCCC1=O (stereo not shown) [Compound 5, N-2-oxocyclopentylbutanamide]",AI2 agonist activity (induction of rhlI-gfp reporter),RhlR [4],strong agonist activity
"CCCC(=O)NC1CCCCC1=O (stereo not shown) [Compound 7, N-2-oxocyclohexylbutanamide]",AI2 agonist activity (induction of rhlI-gfp reporter),RhlR [4],strong agonist activity

# — US7498292B2, “Combinatorial libraries of autoinducer analogs, autoinducer agonists and antagonists, and methods of use thereof” (The Research Foundation of State University of New York, priority 2002, dated 2009)
